What was measured:
[1] = system: HBV core protein variant F110I; experiment: Antiviral effect against core variants, transfected HepG2 cells; type: cell-based, HBV genotype D; conditions: Hepatitis B virus, HepG2, read-out: EC50 ± StD (nM)
Protocol: (§1) HepG2 cell line was used for HBV genotypes and core variants inhibition assays. HepG2 cell line is maintained in DMEM supplemented with 10% of fetal bovine serum, 1% of glutamine and 1% of penicillin/streptomycin.
(§2) HepG2 cells were seeded in polylysine coated 96 multiwell plates at a density of 2*10^4 cells/well and incubated overnight at 37° C. The following day cells were transfected with the HBV plasmids (100 ng/well) using the Lipofectamine 3000 Reagent (Thermo Fisher Scientific) and following manufacturer instructions. After 5 h transfection mixtures were removed and cells were treated with serially diluted compounds in 0.5% DMSO at 8-point dose-response as previously described. After 96 hours of incubation at 37° C. with compound the supernatants were collected, centrifuged for cell debris clarification and incubated with DNase I amplification grade 1 Unit/50 μl (Sigma) for 1 h at 37° C. to allow plasmid input digestion. Quantification of extracellular HBV DNA with direct qPCR was performed as previously described. To avoid unspecific detection of HBV plasmid and to confirm plasmid digestion, specific primers designed across plasmid backbone and HBV sequence were added as controls (HBV-CNT-gt-F:5′-[…]-3′ (SEQ ID No. 3), HBV-CNT-gt-R:5′-[…]-3′(SEQ ID No. 4)). Antiviral activity data for each genotype are reported as EC50 mean value. Moreover the EC50 shift value is indicated, corresponding to the ratio between the observed EC50 and the EC50 for genotype D, which is used as reference genotype (see RESULTS, Table 2 legend). Excel and Graphpad Prism programs are typically used for data elaboration and EC50 calculation.
(§3) The experimental procedure for antiviral effect against HBV core protein variants was similar to the one previously described for antiviral effect on HBV A-E Genotypes. Different core point mutations (F23Y, F110I, I105T, L37Q, T33N, T33P, T128I, V124G, Y118F) were selected based on their ability to reduce potency of CAMs currently in development (literature data) and introduced in the plasmids containing the HBV genome of genotype D (pcDNA3.1-HBV1.1-D, described above). The following list of plasmids was generated by site-directed mutagenesis of the parent plasmid pcDNA3.1-HBV1.1-D (p26 in J Virol. 2010, 84, 3879-88): pcDNA3.1-HBV1.1-D-CoreF23Y, pcDNA3.1-HBV1.1-D-CoreF110I, pcDNA3.1-HBV1.1-D-Core 1105 T, pcDNA3.1-HBV1.1-D-CoreL37Q, pcDNA3.1-HBV1.1-D-CoreT33N, pcDNA3.1-HBV1.1-D-CoreT33P, pcDNA3.1-HBV1.1-D-CoreT128I, pcDNA3.1-HBV1.1-D-CoreV124G, pcDNA3.1-HBV1.1-D-CoreY118F (point mutations in the nucleotide codon relative to the indicated core aminoacid substitution are the followings: TTC/TAC for F23Y, TTT/ATT for F110I, ATT/ACT for I105T, CTG/CAG for L37Q, ACC/AAC for T33N, ACC/CCC for T33P, ACT/ATT for T128I, GTG/GGG for V124G, TAT/TTT for Y118F). Antiviral activity data for each variant are reported as EC50 mean value and EC50 shift compared to wild type (see RESULTS, Table 4 legend). Excel and Graphpad Prism programs are typically used for data elaboration and EC50 calculation.

[2] = system: HBV core protein variant I105T; experiment: as above; type: cell-based, HBV genotype D; conditions: Hepatitis B virus, HepG2, read-out: EC50 ± StD (nM)
Protocol: as §1, §2, §3

[3] = system: HBV core protein variant L37Q; experiment: as above; type: cell-based, HBV genotype D; conditions: Hepatitis B virus, HepG2, read-out: EC50 ± StD (nM)
Protocol: as §1, §2, §3

[4] = system: HBV core protein variant V124G; experiment: as above; type: cell-based, HBV genotype D; conditions: Hepatitis B virus, HepG2, read-out: EC50 ± StD (nM)
Protocol: as §1, §2, §3

[5] = system: HBV core protein variant F23Y; experiment: as above; type: cell-based, HBV genotype D; conditions: Hepatitis B virus, HepG2, read-out: EC50 ± StD (nM)
Protocol: as §1, §2, §3

[6] = system: HBV core protein variant Y118F; experiment: as above; type: cell-based, HBV genotype D; conditions: Hepatitis B virus, HepG2, read-out: EC50 ± StD (nM)
Protocol: as §1, §2, §3

[7] = system: HBV core protein variant T33N; experiment: as above; type: cell-based, HBV genotype D; conditions: Hepatitis B virus, HepG2, read-out: EC50 ± StD (nM)
Protocol: as §1, §2, §3

[8] = system: HBV core protein variant T128I; experiment: as above; type: cell-based, HBV genotype D; conditions: Hepatitis B virus, HepG2, read-out: EC50 ± StD (nM)
Protocol: as §1, §2, §3

[9] = system: HBV core protein variant T33P; experiment: as above; type: cell-based, HBV genotype D; conditions: Hepatitis B virus, HepG2, read-out: EC50 ± StD (nM)
Protocol: as §1, §2, §3

HBV genotype C2 = experiment: Antiviral effect on HBV genotypes, transiently transfected HepG2 cells; type: cell-based; conditions: Hepatitis B virus, HepG2, read-out: EC50 ± StD (nM)
Source text: as §1
(§4) For antiviral effect on HBV A-E genotypes, HepG2 cell line and DNA plasmids expressing HBV genome of different genotypes, from A to E, were used. HepG2 were transiently transfected with plasmid DNA harboring 1.1-mer-overlength genomic sequences of each HBV genotypes A to E isolates cloned into the pcDNA3.1/Zeo(−) vector as described in J Virol. 2010, 84, 3879-88 (https://doi.org/10.1128/JVI.02528-09). Each plasmid contains the 1.1×HBV genome under the control of a CMV promoter. The list of plasmid used is the following: pcDNA3.1-HBV1.1-A2 (HBV genotype A2), pcDNA3.1-HBV1.1—B2 (HBV genotype B2), pcDNA3.1-HBV1.1—C2 (HBV genotype C2), pcDNA3.1-HBV1.1-D (described as p26 in the above reference, HBV genotype D), pcDNA3.1-HBV1.1-E (HBV genotype E). Methods of generating plasmids are well know in the art (as for example in Viruses 2020, 12, 353, doi:10.3390/v12030353; Antiviral Research 144 (2017) 205-215, http://dx.doi.org/10.1016/j.antiviral.2017.06.016) and the selection of a suitable method is not a limitation on the present invention.
as §2

HBV genotype E = experiment: as above; type: cell-based; conditions: Hepatitis B virus, HepG2, read-out: EC50 ± StD (nM)
Source text: as §1, §4, §2

HBV genotype B2 = experiment: as above; type: cell-based; conditions: Hepatitis B virus, HepG2, read-out: EC50 ± StD (nM)
Source text: as §1, §4, §2

HBV genotype A2 = experiment: as above; type: cell-based; conditions: Hepatitis B virus, HepG2, read-out: EC50 ± StD (nM)
Source text: as §1, §4, §2

HBV genotype D = experiment: as above; type: cell-based; conditions: Hepatitis B virus, HepG2, read-out: EC50 ± StD (nM)
Source text: as §1, §4, §2

HBV [10] = experiment: HBV inhibition assay in HepAD38 cells (extracellular HBV DNA by direct qPCR); type: cell-based, HBV genotype D subtype ayw; conditions: Hepatitis B virus, 96 hours, read-out: HBV inh EC50
Source text: HepAD38 cell line (Ladner et al., Antimicrob Agents Chemother, 1997, 41, 1715-20) was used for HBV inhibition assays. HepAD38 is a subclone, derived from hepatoblastoma cell line HepG2 (ATCC® Number: HB-8065), that expresses HBV genome (genotype D subtype ayw) under the transcriptional control of a tetracycline-responsive promoter in a TET-OFF system: addition of doxycycline, an antibiotic belonging to the class of tetracycline, suppresses HBV replication, while its removal switches on the process allowing HBV viral particles release in the cell supernatant. HepAD38 cell line is maintained in DMEM/F12, supplemented with 10% of fetal bovine serum, 1% of glutamine, 1% of penicillin/streptomycin, 0.4 mg/ml G418 and 0.3 ug/ml tetracycline. For the HBV inhibition assay, doxycycline-free medium is used in order to allow virion production.
HBV inhibition activity in vitro was performed in 96 multiwell plates. During the initial (primary) screening, compounds were first tested in triplicates at concentrations of 0.02 μM, 0.1 μM, 0.5 μM and 1 μM. For selected compounds, an 8-point dose-response curve was obtained using 1:2 serial dilutions (starting from 0.01 μM, 0.1 μM, 0.4 μM or 5 μM, depending on the degree of inhibition observed during the primary screening). From the dose-response curves, half maximal effective concentration (EC50) could be calculated (see also below).
In more detail, compounds—typically dissolved in DMSO stock solutions—were diluted to 2× the final desired concentration in 100 μl of the above medium (without doxycycline) and plated in three replicates in the 96-well plates.
Simultaneously, HepAD38 cells—extensively pre-washed in doxycycline-free medium in order to induce HBV production—were suspended at 2*10^4 cells in 100 μl of doxycycline-free medium and added to each well of the plate, to yield a final assay volume of 200 μl.
DMSO, used for stock solutions and compounds dilutions, was always present in the assays at a final concentration of 0.5%.
Plates were then incubated 96 hours at 37° C. and then subjected to cell viability assays and extracellular HBV quantification, in order to evaluate both the cytotoxic potential and the antiviral activity of compounds.
Cytotoxicity was assessed by a commercial fluorescence assay that measures the metabolic activity of cells, directly related to cell viability (Cell Titer Blue, Promega). For each compound, cytotoxicity was evaluated at the same concentration employed to evaluate its anti-HBV activity. Anti-HBV activity was evaluated by quantification of extracellular HBV DNA with direct qPCR. In particular, supernatant was collected and centrifuged for cell debris clarification, viral DNA was extracted from virions by addition of lysis buffer (1 mM 1,4-dithiothreitol, 0.2% sodium dodecyl sulphate) and incubated at 95° C. for 10 min. Samples were then diluted 1:40 and real time PCR amplification was performed with SYBR green assay (Power SYBR™ Green PCR Master Mix-Thermo Fisher Scientific) and specific HBV primer (HBV-DF:5′-[…]-3′ (SEQ ID No. 1), HBV-DR:5′-[…]-3′ (SEQ ID No. 2)).
Antiviral activity data for each compound are reported as EC50 value (see Table 1 legend). Excel and Graphpad Prism programs are typically used for data elaboration and EC50 calculation.

HBV [11] = conditions: Phase 1b clinical studies; cited from earlier work

With Cc1cc(NC(=O)c2c3c(cn2C)S(=O)(=O)N[C@H]2CN(C(=O)C(=O)N[C@@H](C)C(F)(F)F)C[C@H]2CO3)ccc1F [Example E15, (3aR,10aR)—N-(4-fluoro-3-methylphenyl)-7-methyl-2-(2-oxo-2-(((S)-1,1,1-trifluoropropan-2-yl)amino)acetyl)-2,3,3a,4,10,10a-hexahydro-1H,7H-dipyrrolo[3,4-b:3′,4′-f][1,4,5]oxathiazocine-8-carboxamide 5,5-dioxide] the EC50 [1] was 1.12 ± 0.3 nM, the EC50 [2] was 3.22 ± 1.45 nM and the EC50 [3] was 8.72 ± 3.76 nM. The EC50 [4] was 6.8 ± 2.08 nM, the EC50 [5] was 6.33 ± 0.94 nM and the EC50 [6] was 6.37 ± 1.84 nM. It also gave an EC50 [7] of 46.9 ± 21.1 nM, an EC50 [8] of 8.91 ± 5.85 nM and an EC50 [9] of 1.68 ± 0.37 nM. The EC50 (HBV genotype C2) was 0.72 ± 0.55 nM, the EC50 (HBV genotype E) was 1.79 ± 1.08 nM and the EC50 (HBV genotype B2) was 1.58 ± 0.7 nM. The EC50 (HBV genotype A2) was 2.14 ± 0.43 nM and the EC50 (HBV genotype D) was 0.94 ± 0.49 nM.

With Cc1cc(NC(=O)c2c3c(c(C)n2C)S(=O)(=O)N[C@H]2CN(C(=O)C(=O)N[C@H](C)C(F)(F)F)C[C@H]2CO3)ccc1F [Example E53, (3aR,10aR)—N-(4-fluoro-3-methylphenyl)-6,7-dimethyl-2-(2-oxo-2-(((R)-1,1,1-trifluoropropan-2-yl)amino)acetyl)-2,3,3a,4,10,10a-hexahydro-1H,7H-dipyrrolo[3,4-b:3′,4′-f][1,4,5]oxathiazocine-8-carboxamide 5,5-dioxide] the EC50 (HBV [10]) was < 500 nM.

For Cc1cc(NC(=O)c2c3c(cn2C)S(=O)(=O)N[C@H]2CN(C(=O)C(=O)N[C@H](C)C(F)(F)F)C[C@@]2(C)CO3)ccc1F [Example E74, (3aR,10aR)—N-(4-fluoro-3-methylphenyl)-7,10a-dimethyl-2-(2-oxo-2-(((R)-1,1,1-trifluoropropan-2-yl)amino)acetyl)-2,3,3a,4,10,10a-hexahydro-1H,7H-dipyrrolo[3,4-b:3′,4′-f][1,4,5]oxathiazocine-8-carboxamide 5,5-dioxide], the EC50 (HBV [10]) was < 500 nM.

With Cc1cc(NC(=O)c2c3c(cn2C)S(=O)(=O)N[C@H]2CN(C(=O)C(=O)N[C@H](C)C(F)(F)F)C[C@@]2(O)CO3)ccc1F [Example E75, (3aS,10aS)—N-(4-fluoro-3-methylphenyl)-10a-hydroxy-7-methyl-2-(2-oxo-2-(((R)-1,1,1-trifluoropropan-2-yl)amino)acetyl)-2,3,3a,4,10,10a-hexahydro-1H,7H-dipyrrolo[3,4-b:3′,4′-f][1,4,5]oxathiazocine-8-carboxamide 5,5-dioxide] the EC50 (HBV [10]) was < 500 nM.

For O=C(Nc1cc(F)c(F)c(F)c1)c1ccc(F)c(S(=O)(=O)N2CCC(O)CC2)c1 [NVR3-778], the “HBV DNA” value (HBV [11]) is given as “significant reduction” and the “serum HBV RNA” value (HBV [11]) is given as “significant reduction”.
